Source: ChEMBL document CHEMBL1124633, “Antimalarials. 16. Synthesis of 2-substituted analogues of 8-[(4-amino-1-methylbutyl)amino]-6-methoxy-4-methyl-5-[3- (trifluoromethyl)phenoxy]quinoline as candidate antimalarials” (J Med Chem, 1989)

Legend:
[1] = Molar primaquine index is ratio of ED50 of Compound by ED50 of primaquine in rhesus monkey; assay type: functional
[2] = Acute toxicity administered intra peritoneally was determined in 74 male rats; settings: rat, in vivo, ip
[3] = Acute toxicity administered orally was determined in 74 male rats; settings: rat, in vivo, po
[4] = Acute toxicity administered intra peritoneally was determined in 85 female rats; settings: rat, in vivo, ip
[5] = Acute toxicity administered orally was determined in 85 female rats; settings: rat, in vivo, po
[6] = Molar primaquine index is ratio of ED50 of Primaquine by ED50 of primaquine in rhesus monkey; assay type: functional
[7] = Acute toxicity administered intraperitoneally was determined in male rats; assay type: organism-based; settings: rat, in vivo, ip
[8] = Acute toxicity administered intraperitoneally was determined in female rats; assay type: organism-based; settings: rat, in vivo, ip
[9] = Acute toxicity administered orally was determined in male rats; assay type: organism-based; settings: rat, in vivo, po
[10] = Acute toxicity administered orally was determined in female rats; assay type: organism-based; settings: rat, in vivo, po

COc1cc(NC(C)CCCN)c2nccc(C)c2c1Oc1cccc(C(F)(F)F)c1 (configuration not stated)
Ratio [1]: 6.8
LD50 [2]: 86 mg/kg
LD50 [3]: 256 mg/kg
LD50 [4]: 54 mg/kg
LD50 [5]: 401 mg/kg

COc1cc(NC(C)CCCN)c2nc(OC)cc(C)c2c1 (configuration not stated)
Ratio [1]: 6.8

COc1cc(NC(C)CCCN)c2ncccc2c1 (configuration not stated) [PRIMAQUINE]
Ratio [6]: 1

COc1cc(C)c2c(Oc3cccc(C(F)(F)F)c3)c(OC)cc(NC(C)CCCN)c2n1 (configuration not stated) [TAFENOQUINE]
Ratio [1]: 12.8
LD50 [7]: 102 mg/kg
LD50 [8]: 71 mg/kg
LD50 [9]: 429 mg/kg
LD50 [10]: 416 mg/kg
